# Results from the supplement of paper PMC11061612.
# What was measured:
# [1] = system: P31-FUJ (Acute Myeloid Leukemia); experiment: combination Emax (second highest fraction inhibited in the dose matrix, 72 h); higher = more inhibition; extreme values may be limits of the assay
# Outline: (§1)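 Bliss excess equals the observed combination effect minus the expected value EA + EB − EA·EB, where EA and EB are the effects of each agent alone. Combination Emax is the second-highest inhibition within the matrix. Inhibition was scaled from CellTiter-Glo 2.0 luminescence, with 0 set by vehicle wells and 1 by blank wells, after 72 hours of two-drug dosing of cells plated in 1536-well plates.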
# SK-MEL-1 (Melanoma) = experiment: as above
# Outline: as §1
# EW-22 (Ewing's Sarcoma) = experiment: as above
# Outline: as §1
# CS1 (Chondrosarcoma) = experiment: as above
# Outline: as §1
# [2] = system: SW948 (Colorectal Carcinoma); experiment: as above
# Outline: as §1
# MSTO-211H (Mesothelioma) [3] = experiment: as above
# Outline: as §1
# [4] = system: SW48 (Colorectal Carcinoma); experiment: as above
# Outline: as §1
# H4 (Low Grade Glioma) [5] = experiment: as above
# Outline: as §1
# [6] = system: WSU-DLCL2 (B-Cell Non-Hodgkin's Lymphoma); experiment: as above
# Outline: as §1
# [7] = system: D-283MED (Other Solid Carcinomas); experiment: as above
# Outline: as §1
# [8] = system: SK-UT-1 (Other Solid Carcinomas); experiment: as above
# Outline: as §1
# [9] = system: SNG-M (Endometrial Carcinoma); experiment: as above
# Outline: as §1
# HCC38 (Breast Carcinoma) = experiment: as above
# Outline: as §1
# [10] = system: MEG-01 (Chronic Myelogenous Leukemia); experiment: as above
# Outline: as §1
# [11] = system: HCT-116 (Colorectal Carcinoma); experiment: Bliss excess, mean over the matrix (fraction); higher = more synergy
# Outline: as §1
# MSTO-211H (Mesothelioma) [12] = experiment: as above
# Outline: as §1
# [13] = system: SW48 (Colorectal Carcinoma); experiment: as above
# Outline: as §1
# [14] = system: CAL-39 (Other Solid Carcinomas); experiment: as above
# Outline: as §1
# H4 (Low Grade Glioma) [15] = experiment: as above
# Outline: as §1
# [16] = system: MEG-01 (Chronic Myelogenous Leukemia); experiment: as above
# Outline: as §1
SMILES,combination Emax [1],combination Emax (SK-MEL-1 (Melanoma)),combination Emax (EW-22 (Ewing's Sarcoma)),combination Emax (CS1 (Chondrosarcoma)),combination Emax [2],combination Emax (MSTO-211H (Mesothelioma) [3]),combination Emax [4],combination Emax (H4 (Low Grade Glioma) [5]),combination Emax [6],combination Emax [7],combination Emax [8],combination Emax [9],combination Emax (HCC38 (Breast Carcinoma)),combination Emax [10],Bliss excess [11],Bliss excess (MSTO-211H (Mesothelioma) [12]),Bliss excess [13],Bliss excess [14],Bliss excess (H4 (Low Grade Glioma) [15]),Bliss excess [16]
"CN(CCO)CC[C@H](CSc1ccccc1)Nc1ccc(S(=O)(=O)NC(=O)c2ccc(N3CCC([C@@H](O)c4ccccc4-c4ccc(Cl)cc4)CC3)cc2)cc1S(=O)(=O)C(F)(F)F [AZD4320] + CS(=O)(=O)CCNCc1ccc(-c2ccc3ncnc(Nc4ccc(OCc5cccc(F)c5)c(Cl)c4)c3c2)o1 [Lapatinib] (first compound max 1 µM, 7x7, partner max 10 µM)",0.959,0.808,0.971,0.937,0.96,0.952,0.969,0.93,0.967,0.988,0.906,0.92,0.913,0.986,0.0085,0.0275,0.14,0.0372,-0.0113,0.103
"CC1(C)CCC(CN2CCN(c3ccc(C(=O)NS(=O)(=O)c4ccc(NCC5CCOCC5)c([N+](=O)[O-])c4)c(Oc4cnc5[nH]ccc5c4)c3)CC2)=C(c2ccc(Cl)cc2)C1 [Venetoclax] + CS(=O)(=O)CCNCc1ccc(-c2ccc3ncnc(Nc4ccc(OCc5cccc(F)c5)c(Cl)c4)c3c2)o1 [Lapatinib] (first compound max 1 µM, 7x7, partner max 10 µM)",0.581,0.327,0.214,0.411,0.352,0.299,0.391,0.171,0.798,0.927,0.458,0.247,0.169,0.485,-0.0369,-0.019,0.0163,-0.0062,-0.0188,-0.0101
"C[C@@H](Nc1cc(F)cc(F)c1)c1cc(C(=O)N(C)C)cc2c(=O)cc(N3CCOCC3)oc12 [AZD8186] + CC(=O)c1c(C)c2cnc(Nc3ccc(N4CCNCC4)cn3)nc2n(C2CCCC2)c1=O [Palbociclib] (first compound max 10 µM, 7x7, partner max 10 µM)",0.277,0.265,0.45,0.513,0.433,0.428,0.617,0.697,0.762,0.831,0.231,0.432,0.209,0.182,0.0488,0.135,0.0715,0.125,0.122,-0.0585
"CN(CCO)CC[C@H](CSc1ccccc1)Nc1ccc(S(=O)(=O)NC(=O)c2ccc(N3CCC([C@@H](O)c4ccccc4-c4ccc(Cl)cc4)CC3)cc2)cc1S(=O)(=O)C(F)(F)F [AZD4320] + Nc1ccn([C@@H]2O[C@H](CO)[C@@H](O)C2(F)F)c(=O)n1 [Gemcitabine] (first compound max 1 µM, 7x7, partner max 0.3 µM)",0.959,0.649,0.999,0.789,0.524,0.96,0.972,0.988,1,1,0.978,0.913,0.813,0.93,0.0111,0.0099,0.0089,0.0174,0.0194,0.0059
